Key:
[1] = test system: acetic acid-induced writhing; experiment: Acetic Acid Writhing Test in Mice; format: in vivo, mouse; conditions: Mus musculus, po, read-out: WRITH ED50
Method in brief: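 Writhing provoked by intraperitoneal acetic acid in mice, following the Hendershot and Koster procedures. Values are effective doses (ED50) in mg/kg.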

methamphetamine toxicity = experiment: Methamphetamine toxicity test in mice; format: in vivo; conditions: Mus musculus, read-out: METHA ED50
Description: The methamphetamine toxicity test in mice was carried out as described in Burn et al, Arch. Int. Pharmacodyn 113:290-295, (1958); and Coscia et al, Arzneim-Forsch (Drug Research) 25:1436-1442, (1975); which are hereby incorporated by reference.
(§1) The results for this test are given below as ED50's in the units of mg/kg.
METHA refers to the methamphetamine toxicity test in mice;

metrazole = experiment: Anti-metrazole test in mice; format: in vivo, mouse; conditions: Mus musculus, read-out: MTZ ED50
Description: The anti-metrazole test in mice was carried out as described in Everett et al, J. Pharmacol. Exp. Therap. 81:402-407 (1944); which is hereby incorporated by reference.
as §1

[2] = test system: PDGF-BB-stimulated mitogenesis of bovine smooth muscle cells; experiment: Smooth muscle cell mitogenesis test; format: cell-based
Description: The procedure for the Smooth Muscle Cell Mitogenesis test is given just below. The fibronectin adhesion inhibitor, compound B, was tested for inhibitory effects on PDGF (Platelet Derived Growth Factor) BB-stimulated mitogenesis of bovine smooth muscle cells. Cells were exposed to PDGF with and without compound B in 24-well plates for 16 hours.

PDGF receptor = PDGF receptor binding assay

COc1ccc(C2=C3CC4CCC(N4)C3c3ccccc32)cc1 (stereo not shown) [Compound B]
ED50 [1]: > 30 mg/kg
ED50 (methamphetamine toxicity): > 30 mg/kg
ED50 (metrazole): > 30 mg/kg
3H-Thymidine Incorporation (dpm/1000 ± S.E.M.) ([2]; 0.1 μM + 1 ng/ml PDGF-BB): 406.8 ± 30.2 dpm/1000
3H-Thymidine Incorporation (dpm/1000 ± S.E.M.) ([2]; 0.3 μM + 1 ng/ml PDGF-BB): 347.7 ± 9.8 dpm/1000
3H-Thymidine Incorporation (dpm/1000 ± S.E.M.) ([2]; 1 μM + 1 ng/ml PDGF-BB): 156.3 ± 7.2 dpm/1000
3H-Thymidine Incorporation (dpm/1000 ± S.E.M.) ([2]; 3 μM + 1 ng/ml PDGF-BB): 17.0 ± 1.9 dpm/1000
cell detachment ([2]; 10 μM): caused cells to detach from the plate
3H-Thymidine Incorporation (dpm/1000 ± S.E.M.) ([2]; 10 μM + 1 ng/ml PDGF-BB): 7.3 ± 5.3 dpm/1000
inhibition at 0.1 µM ([2]; Bos taurus, 0.1 μM + 1 ng/ml PDGF-BB): -2.7%
inhibition at 0.3 µM ([2]; Bos taurus, 0.3 μM + 1 ng/ml PDGF-BB): 18.5%
inhibition at 1 µM ([2]; Bos taurus, 1 μM + 1 ng/ml PDGF-BB): 87.1%
inhibition at 3 µM ([2]; Bos taurus, 3 μM + 1 ng/ml PDGF-BB): 137%
inhibition at 10 µM ([2]; Bos taurus, 10 μM + 1 ng/ml PDGF-BB): 140%
IC50 ([2]; Bos taurus, 16 hours, read-out: inhibition of PDGF-stimulated mitogenesis IC50): 520 nM
inhibition of PDGF binding (PDGF receptor): not to inhibit PDGF binding directly
